Source: patent US20040038855A1 (priority 1999, published 2004)

How the values were obtained:
human MCH1 receptor [1] = molecular target: T1, human MCH1 receptor (Homo sapiens, UniProt Q99705); assay type: cell-based; set-up: expressed in transfected cells; host or cells: COS-7; details: linear regression, r^2=0.94
Protocol: Guidelines for cell preparation and assay of the second messenger inositol phosphate (IP) are described below for a typical protocol involving transiently transfected Cos-7 cells; For a 96 well microplate format assay, cells are plated at 70,000 cells per well and allowed to incubate for 24 hours after the transfection procedure. The cells are then labeled with 0.5 μCi [^3H]myo-inositol per micro-well over night at 37° C., 5% CO2. Immediately before the assay, the medium is removed and replaced with 90 μl PBS containing 10 mM LiCl. The plates are then incubated for 15 minutes at 37° C., […]. Following the incubation, the transfectants are challenged with agonist (10 μl/well; 10× concentration) for 30 minutes at 37° C., 5% CO2. The challenge is terminated and the cells lysed by the addition of 100 μl cold 5% v/v trichloroacetic acid (TCA), followed by an incubation at 4° C. for greater than 30 minutes. Total IPs are isolated from the lysate by ion exchange chromatography. Briefly, the lysed contents of the wells are transferred to a Multiscreen HV filter plate (Millipore) containing 100 μl Dowex AG1-X8 suspension (50% v/v, water:resin) (200-400 mesh, formate form). The filter plates are placed on a vacuum manifold to wash and elute the resin bed. Each well is first washed 2 times with 200 μl 5 mM myoinositol. Total [^3H]IPs are eluted with 75 μl of 1.2 M ammonium formate/0.1 M formic acid into Wallac 96-well plates. 200 μl of SuperMix scintillation cocktail is added to each well, mixed well, allowed to equilibrate and counted on a Micro Beta Trilux scintillation counter. (Note: The assay may be scaled to a 24 well format by simple adjustment of reagent volumes and employing individual chromatographic columns.)
The expression vector (pEXJ) containing the MCH1 cDNA was transfected by electroporation into Cos-7 cells in combination with an expression vector (pEXJ) containing the Gα16 subunit.

[2] = system: micturition reflex, conscious male Sprague Dawley rats; assay: Continuous Slow Transvesicular Infusion (CSTI) rat model; assay type: in vivo; set-up: key to Effect of MCH1 antagonist in the CSTI model: B = Produced an increase in bladder capacity in rats relative to baseline capacity
human MCH1 receptor [3] = molecular target: T1, human MCH1 receptor; assay: Saturation and competition binding of [3H]Compound 10, membranes of Cos-7 cells transfected with MCH1; set-up: expressed in transfected cells; host or cells: COS-7; details: 0.4 nM [3H]Compound 10; read-out: IC50, displacement of specific [3H]Compound 10 binding
Protocol: Saturation equilibrium binding of [3H]Compound 10 to the human MCH1 receptor. Membrane preparations from Cos-7 cells transfected with MCH1 were incubated with varying concentrations of [3H]Compound 10 (SA: 56 Ci/mmol) at room temperature for 90 min, in a volume of 0.250 ml. The reaction was terminated by filtration in GF/C filters, and the radioactivity determined by scintillation counting. Non-specific binding was defined as the amount of radioactivity retained in the filter after incubating the reaction mixture in the presence of unlabeled Compound 10 ([…]).
Competition binding of [3H]Compound 10 to the human MCH1 receptor. […] The reaction was terminated by filtration in GF/C filters and the radioactivity bound to the membrane was determined by scintillation counting.
[3H]Compound 10 was tested for its ability to bind to membrane preparations of cells expressing the human MCH1 receptor.

T1 sequence (Q99705 whole entry): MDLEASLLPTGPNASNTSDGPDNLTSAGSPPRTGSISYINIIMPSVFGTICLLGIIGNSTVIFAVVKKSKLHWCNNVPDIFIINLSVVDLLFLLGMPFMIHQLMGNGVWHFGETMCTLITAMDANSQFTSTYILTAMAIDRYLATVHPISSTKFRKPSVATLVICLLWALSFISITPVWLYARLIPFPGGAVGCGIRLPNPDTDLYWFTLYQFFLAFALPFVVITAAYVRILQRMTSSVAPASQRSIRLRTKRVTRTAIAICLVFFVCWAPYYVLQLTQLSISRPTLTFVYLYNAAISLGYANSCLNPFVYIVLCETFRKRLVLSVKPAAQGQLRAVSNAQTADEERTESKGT

What does the source list for `COCC1=C(C(=O)OC)[C@H](c2ccc(F)c(F)c2)N(C(=O)NCCCN2CCC(c3cccc(NC(C)=O)c3)CC2)C(=O)N1` [Example 10, (+)-1,2,3,6-TETRAHYDRO-1-{N-[4-(3,-ACETAMIDO)-PHENYLPIPERIDIN-1-YL]PROPYL}CARBOXAMIDO-4-METHOXYMETHYL-6-(3,4-DIFLUORO-PHENYL)-2-OXOPYRIMIDINE-5-CARBOXYLIC ACID METHYL ESTER]?
slope of the Schild plot (human MCH1 receptor [1]): 0.97±0.2; bladder capacity (% basal) ([2]; 0.03 mg/kg, p.o., n=6 each, p<0.05): Significantly different from corresponding vehicle control; Effect of MCH1 antagonist in the CSTI model ([2]; bladder capacity, intragastric): B; IC50 (human MCH1 receptor [3]): 0.33 nM
